For test [1], the system named is mouse acute wound. Description: Wound healing and collagen synthesis in mouse acute wound (Test Example 2). The format is in vivo. As for the experimental part:
The wound healing-promoting effect of the indirubin derivatives prepared in Examples 1 and 2, the indirubin derivative of Comparative Example 1 (10) and EGF, known as an existing wound healing agent, as a positive control group was investigated through animal experiments.
The hair on the back of 7-week-old C3H mouse that entered the resting period was removed and a 1.5×1.5 cm^2 wound was made on the hair-removed region. 20 μL of a vehicle (10% DMSO, 45% ethanol, 18% propylene glycol, 27% water) and the indirubin derivative of Comparative Example 1 (10) were applied to a control group and a comparison group, respectively, once daily for 12 days. For the positive control group, 100 μM EGF was applied once daily for 12 days. For a first test group, 20 μL of the indirubin derivative of Example 2 (A3051) was applied once daily for 12 days. For a second test group, 20 μL of the indirubin derivative of Example 1 (A3334) was applied once daily for 12 days.
The tissue of each experimental mouse was fixed by immersing in 4% paraformaldehyde, embedded in paraffin and then sliced into 4 μm thickness. The sliced tissue was deparaffinized, rehydrated and then stained with Masson's trichrome and Picrosirius red for evaluation of the degree of collagen synthesis. For Masson's trichrome staining, a slide was placed in Weigert's iron hematoxylin solution for 10 minutes and in Biebrich scarlet-acid fuchsin and aniline blue for 5 minutes each. For Picrosirius red staining, a slide was placed in Weigert's solution for 8 minutes and in Picrosirius red for 1 hour.

The test system of test [2] is mouse acute wound. Description: Wound healing effect of mixtures in mouse acute wound (Test Example 4). The class given is in vivo. The settings on record: C3H mouse; Example 2 0.5 mM, Example 5 2.5 mM, 5 mM; 20 μL once daily for 12 days.
Test [3] concerns HaCaT cells. The test can be described thus: Cell migration of keratinocytes, Euodia sutchuenensis Dode extract and indirubin derivative mixtures (Test Example 5). The format is cell-based, human. The following applies: 18 hours. As for the experimental part:
Cell migration was compared after treating cells with the indirubin derivative of Example 1 (0.1 μM, 1 μM), the indirubin derivative of Example 2 (0.1 μM, 1 μM) or the mixtures of Examples 12 and 13 (0.1 μM and 1 μM indirubin derivative mixed with 1 μg/mL Euodia sutchuenensis Dode extract, respectively).
A non-treated control group (con), a group treated with the Euodia sutchuenensis Dode extract of Example 8 (1 μg/mL) alone (Euodia sutchuenensis Dode 1 μg/mL) and a positive control group treated with 100 μM VPA (valproic acid) were prepared.
Experiment was conducted as follows. First, HaCaT cells were cultured in a 12-well plate for 24 hours. The HaCaT cells are human keratinocytes which are known to play an important role in wound healing. DMEM containing 10% FBS was used. After the culturing for 24 hours was completed, the medium was replaced with DMEM containing 5% FBS and a scratch was made at the center of the cells using a 1000p (blue) tip. Then, after treating the scratched area with a sample, cell migration and motility was observed 18 hours later.
As the sample, the indirubin derivative of Example 1 (0.1 μM, 1 μM), the indirubin derivative of Example 2 (0.1 μM, 1 μM) or the mixtures of Examples 12 and 13 (0.1 μM and 1 μM indirubin derivative mixed with 1 μg/mL Euodia sutchuenensis Dode extract, respectively) was used. […]

Test [4] concerns mouse acute wound. The test can be described thus: Wound healing effect of extract and indirubin derivative mixtures in mouse acute wound (Test Example 6). The class given is in vivo. The settings on record: mouse acute wound tissue, fluorescence staining. The method, then:
Wound healing-promoting effect was investigated after treating an animal model with the indirubin derivative of Example 1 (0.5 mM), the indirubin derivative of Example 2 (0.5 mM) or the mixtures of Examples 12 and 13 (0.5 mM indirubin derivative mixed with 1 μg/mL Euodia sutchuenensis Dode extract).
The hair on the back of 7-week-old C3H mouse that entered the resting period was removed and a 1.5×1.5 cm^2 wound was made on the hair-removed region. A sample was applied to a positive control group, once daily for 12 days. After measuring wound size of the experimental animal on days 0 and 12, the wound tissue was fixed by immersing in 4% paraformaldehyde, embedded in paraffin and then sliced into 4 μm thickness. The sliced tissue was deparaffinized, rehydrated and then the degree of re-epithelialization was compared. Masson's trichrome staining and Picrosirius red staining were conducted for evaluation of the degree of collagen synthesis. For Masson's trichrome staining, a slide was immersed in Weigert's iron hematoxylin solution for 10 minutes and in Biebrich scarlet-acid fuchsin and aniline blue for 5 minutes each. […] The sliced skin tissue was fluorescence-stained using β-catenin, PCNA, keratin 14 and collagen I antibodies and was observed using a fluorescence microscope (FIG. 9a). […]

The next test concerns diabetic wound. The test can be described thus: Effect of treating diabetic wound (Test Example 9). The format is in vivo. The settings on record: diabetes-induced mouse; for healing of the wound site: 0.8×0.8 cm^2 wound, 20 μL once daily for 14 days, VPA 500 mM; for re-epithelialization (H&E): 14 days. As for the experimental part: 3-week-old male C57BL/6N mice (Koatech, South Korea) were used. After accustoming the mice for a week to normal feed, high-fat diet (Product Data—D12492; 60% kcal, hereinafter referred to as HFD) was given for 4 weeks. Then, a diabetes-induced animal model was prepared by intraperitoneally injecting 40 mg/kg streptozocin (Sigma) once daily for a week. The mice were kept in cages maintained at constant temperature (22±2° C.) and relative humidity (40-60%) with light/dark cycles of 12/12 hours.
6 mice of the normal control group and 6 mice per test group of the diabetes-induced animal model of Test Example 7 were prepared. The hair on the back was removed and a 0.8×0.8 cm^2 wound was made on the hair-removed region.
For the normal control group, only 20 μL of an emulsion solution (Kollipore®EL:Tween 80:PEG 400 at a mixing weight ratio of 80:6:14) was applied to the wound site once daily for 14 days. For the negative control group, only 20 μL of the emulsion solution (Kollipore®EL:Tween 80:PEG 400 at a mixing weight ratio of 80:6:14) was applied to the wound site once daily for 14 days. For the positive control group (VPA), 20 μL of a composition prepared by mixing 500 mM VPA in an emulsion solution was applied to the wound site once daily for 14 days.
For the first test group, 20 μL of A3334 (Example 1) was applied to the wound site once daily for 14 days. For the second test group, 20 μL of A3051 (Example 2) was applied to the wound site once daily for 14 days. Then, the wound site of each group was photographed and the wound area was measured (FIG. 14). On day 14, after euthanizing the mouse with carbon dioxide, the wound site tissue was harvested and the histological structure was observed.
Specifically, the wound site tissue obtained from the normal control group, the negative control group, the positive control group or the first or second test group was fixed by immersing in 4% paraformaldehyde, embedded in paraffin and then sliced into 4 μm thickness. The sliced tissue was deparaffinized, rehydrated and then stained with hematoxylin (purple) and eosin (pink) for observation of histological structure.
Specifically, the wound site tissue obtained from the normal control group, the negative control group, the positive control group or the first or second test group was fixed by immersing in 4% paraformaldehyde, embedded in paraffin and then sliced into 4 μm thickness. The sliced tissue was deparaffinized, rehydrated and then stained with Van Gieson's stain and Masson's trichrome for observation of histological structure. For the Van Gieson's staining, the sliced tissue was immersed in Weigert's solution for 10 minutes and in picrofuchsin solution for 2 minutes. For the Masson's trichrome staining, the sliced tissue was immersed in Weigert's iron hematoxylin solution for 10 minutes and in Biebrich scarlet-acid fuchsin and Aniline blue for 5 minutes each.
Specifically, the wound site tissue obtained from the normal control group, the negative control group, the positive control group or the first and second test groups was fixed by immersing in 4% paraformaldehyde and angiogenesis was observed.

The test system of test [5] is HaCaT cells. Description: Cell motility of keratinocytes, indirubin derivative and low-molecular-weight compound mixtures (Test Example 3). The format is cell-based, human. The following applies: HaCaT scratch; 18 hours later; methyl vanillate 5 μM, hesperidin 1 μM, quercitrin 1 μM. The method, then: For analysis of wound healing effect, cell motility was compared for treatment with the indirubin derivative prepared in Example 2, the methyl vanillate of Example 5, the hesperidin of Example 6, the quercitrin of Example 7 and the mixtures prepared in Examples 9-11.
HaCaT cells, which are human keratinocytes playing an important role in wound healing, were cultured in a 12-well plate for 24 hours using DMEM containing 10% FBS. Then, after replacing the medium with DMEM containing 5% FBS, a scratch was made at the center of the cells using a 1000p (blue) tip. Then, after treating the scratched area with each of the indirubin derivative prepared in Example 2, the methyl vanillate of Example 5, the hesperidin of Example 6, the quercitrin of Example 7 and the mixtures prepared in Examples 9-11 at a concentration of 1 μM or 5 μM, cell motility was observed 18 hours later.
Specifically, the concentration of the indirubin derivative prepared in Example 2, the hesperidin of Example 6 and the quercitrin of Example 7 was 1 μM, the concentration of the methyl vanillate of Example 5 was 5 μM, and the mixtures prepared in Examples 9-11 were prepared by mixing 1 μM indirubin derivative with 5 μM methyl vanillate, 1 μM hesperidin or 1 μM quercitrin.
The control group (control) means non-treated keratinocytes. […]

Where [6] appears, read: C3H mouse acute wound, once daily for 12 days, vs EGF.

Here are results for four compounds from patent US11773081B2, “Pharmaceutical composition for preventing or treating wound, comprising indirubin derivative as active ingredient” (CK Regeon Inc., priority 2018, dated 2023).

Consider `CO/N=C1/C(=C2/C(=O)Nc3cc(Cl)c(Cl)cc32)Nc2ccccc21` [Example 2, 5,6-dichloroindirubin-3′-methoxime], for which the “quantity of collagen (Masson's trichrome, Picrosirius red, van Gieson's stain)” value with mouse acute wound [1] (C3H mouse acute wound tissue, vs control group, Comparative Example 1, positive control group) is recorded as “remarkably increases the quantity of collagen”. For the same compound, in the test on mouse acute wound [1] (setting [6]), the “re-epithelialization of acute wound” value is listed as “re-epithelialized comparably to or faster than the positive control group EGF” and the “scar-reducing effect, repair of the epidermal layer of skin” value was “very effective in reducing scarring”. Moreover, the “wound repair effect as compared to the positive control group EGF” value in the test on mouse acute wound [1] (C3H mouse, 1.5×1.5 cm^2 wound, 20 μL once daily for 12 days, EGF 100 μM) is on record as 2-6 times. The “acute wound healing as compared to the control group or the positive control group” value with mouse acute wound [2] was “healed quickly”. In addition, in the test with HaCaT cells [3] (first value of 'respectively' (0.1 μM indirubin derivative; mixture with 1 μg/mL extract)), the “recovery of cell migration rate (%) as compared to the control group” value turned out to be 50%. Further, the “recovery of cell migration rate (%) as compared to the control group” value with HaCaT cells [3] (second value of 'respectively' (1 μM indirubin derivative; mixture with 1 μg/mL extract)) turned out to be 114%. For the same compound, the “expression of β-catenin, PCNA, keratin 14 and collagen I” value in the test on mouse acute wound [4] was “slightly lower as compared to the positive control group”. Moreover, in the test with diabetic wound, the “angiogenesis around the wound site” value is given as “increased angiogenesis”, the “healing of the wound site” value is “healing of the wound site was promoted similarly to the normal control group” and the “re-epithelialization (H&E)” value is given as “re-epithelialization occurred quickly”. In addition, the “collagen synthesis (Van Gieson's stain, Masson's trichrome)” value in the test with diabetic wound (vs normal, negative and positive control group (VPA)) was “increased collagen synthesis”.

For the compound `COC(=O)c1ccc(O)c(OC)c1` [Example 5, Methyl vanillate, reference compound], the “cell motility compared with the control group” value with HaCaT cells [5] is reported as “no difference in cell motility”. For the same compound, the “acute wound healing as compared to the control group or the positive control group” value with mouse acute wound [2] is “healed quickly”.

As for `COc1ccc([C@@H]2CC(=O)c3c(O)cc(O[C@@H]4O[C@H](CO[C@@H]5O[C@@H](C)[C@H](O)[C@@H](O)[C@H]5O)[C@@H](O)[C@H](O)[C@H]4O)cc3O2)cc1O` [Example 6, Hesperidin], in the test with HaCaT cells [5], the “cell motility compared with the control group” value was “no difference in cell motility”.

As to `CCCC(CCC)C(=O)O` [VPA, valproic acid, reference compound], in the test with diabetic wound, the “healing of the wound site” value is “wound healing was delayed similarly to the negative control group” and the “re-epithelialization (H&E)” value was “re-epithelialization did not occur even after 14 days”.
